Laboratory results: paper PMC6271335, “Anti-Cholinesterase Activity of Lycopodium Alkaloids from Vietnamese Huperzia squarrosa (Forst.) Trevis” (Molecules, 2014)

These molecules were tested against AChE (acetylcholinesterase) (Electrophorus electricus, UniProt O42275) (assay: Ellman spectrophotometric assay).
Format: biochemical

Sequence of AChE (acetylcholinesterase) (O42275 24-633): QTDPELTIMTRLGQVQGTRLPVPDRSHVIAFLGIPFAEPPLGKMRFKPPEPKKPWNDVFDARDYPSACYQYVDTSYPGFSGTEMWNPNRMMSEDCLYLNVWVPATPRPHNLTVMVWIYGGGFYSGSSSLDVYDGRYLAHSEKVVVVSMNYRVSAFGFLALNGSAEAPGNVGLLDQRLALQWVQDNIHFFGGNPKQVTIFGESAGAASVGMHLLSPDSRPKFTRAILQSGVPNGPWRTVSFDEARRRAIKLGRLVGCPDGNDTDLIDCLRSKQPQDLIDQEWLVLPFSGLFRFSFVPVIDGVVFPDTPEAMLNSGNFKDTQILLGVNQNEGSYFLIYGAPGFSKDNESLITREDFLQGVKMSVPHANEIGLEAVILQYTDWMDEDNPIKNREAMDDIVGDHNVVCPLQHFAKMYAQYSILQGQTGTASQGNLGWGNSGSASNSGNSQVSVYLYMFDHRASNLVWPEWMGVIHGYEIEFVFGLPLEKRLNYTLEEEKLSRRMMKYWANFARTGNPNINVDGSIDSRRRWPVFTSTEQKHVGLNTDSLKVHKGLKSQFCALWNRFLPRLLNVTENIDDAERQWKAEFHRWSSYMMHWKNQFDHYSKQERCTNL

How did the IC50 turn out when `COc1ccc2cc3[n+](cc2c1OC)CCc1cc2c(cc1-3)OCO2` [Berberine, reference compound] was run?
Its IC50 is 0.268 µM.

How did the IC50 turn out when `CC(=O)OC1C(C)CC(=O)N2CCCC3=C(CCC2)C1CC3=O` (stereo not drawn) [compound 1, lycosquarosine A] was run?
The IC50 was 170 µM.

How did the IC50 turn out when acetylaposerratinine [compound 2] was run?
Its IC50 is 15.2 µg/mL.
